Experimental findings from patent publication US20240316045A1, “CYCLOPROPYLAMIDE COMPOUNDS AGAINST PARASITES IN FISH” (Intervet Inc., priority 2021, published 2024) are described below.

This assay deals with Copepodids (juvenile sea lice stage of Lepeophtheirus salmonis). The assay can be described thus: Juvenile sea lice contact assay. Conditions: approx. 24 hours continuous exposure, read-out: Sea lice inhibition (% of dead+damaged copepodids); for inhibition at 0.01 µM: test concentration 10 nM; for inhibition at 0.1 µM: test concentration 100 nM. The method, then: Copepodids (juvenile sea lice stage of Lepeophtheirus salmonis) were exposed to seawater spiked with declining concentrations of a test compound (dissolved in a DMSO sea-water mixture). Sea lice inhibition (% of dead+damaged copepodids) was assessed after approximately 24 hours of continuous exposure. The vitality of used parasites was confirmed in a negative (solvent) control group.

Take `Cc1ccccc1NC(=O)c1cc(NC(=O)C2C(c3cc(Cl)cc(Cl)c3)C2(Cl)Cl)ccc1Cl` (stereo not drawn) [Compound 1000]: the inhibition at 0.01 µM was found to be 100%.
Take `Cc1ccc(NC(=O)C2C(c3cc(Cl)cc(Cl)c3)C2(Cl)Cl)cc1C(=O)Nc1ccc(F)cc1` (stereo not drawn) [Compound 1001]: the inhibition at 0.1 µM is 100%.
For the compound `O=C(Nc1ccccc1)c1cc(NC(=O)C2C(c3cc(Cl)cc(Cl)c3)C2(Cl)Cl)ccc1Cl` (stereo not drawn) [Compound 1004], the inhibition at 0.01 µM was 80%.
For the compound `N#Cc1cccc(NC(=O)c2cc(NC(=O)C3C(c4cc(Cl)cc(Cl)c4)C3(Cl)Cl)ccc2Cl)c1` (stereo not drawn) [Compound 1005], the inhibition at 0.1 µM came out at 100%.
Take `O=C(Nc1cccnc1)c1cc(NC(=O)C2C(c3cc(Cl)cc(Cl)c3)C2(Cl)Cl)ccc1Cl` (stereo not drawn) [Compound 1008]: the inhibition at 0.1 µM was found to be 100%.
As for `O=C(Nc1ccc(Cl)nc1)c1cc(NC(=O)C2C(c3cc(Cl)cc(Cl)c3)C2(Cl)Cl)ccc1Cl` (stereo not drawn) [Compound 1010], the inhibition at 0.1 µM was 100%.
`N#Cc1ccc(NC(=O)c2cc(NC(=O)C3C(c4cc(Cl)cc(Cl)c4)C3(Cl)Cl)ccc2Cl)cn1` (stereo not drawn) [Compound 1011]: the inhibition at 0.01 µM worked out at 100%.
For `Cc1cc(Cl)cc(C2C(C(=O)Nc3ccc(Cl)c(C(=O)Nc4ccc(F)cc4)c3)C2(Cl)Cl)c1` (stereo not drawn) [Compound 1016], the inhibition at 0.1 µM came to 100%.
In the case of `Cc1cc(Cl)cc(C2C(C(=O)Nc3ccc(Cl)c(C(=O)Nc4c(F)cccc4F)c3)C2(Cl)Cl)c1` (stereo not drawn) [Compound 1018], the inhibition at 0.1 µM worked out at 100%.
Consider `O=C(Nc1ccc(F)cc1)c1cc(NC(=O)C2C(c3cc(Cl)cc(Cl)c3)C2(Cl)Cl)ccc1Cl` (stereo not drawn) [Compound 1021], for which the inhibition at 0.1 µM stood at 100%.
On the same count and under the same terms, the same measure for `CN(C(=O)c1cc(NC(=O)C2C(c3cc(Cl)cc(Cl)c3)C2(Cl)Cl)ccc1Cl)c1ccc(F)cc1` (stereo not drawn) [Compound 1022]: ≥ 80%; for `N#Cc1cc(F)ccc1NC(=O)c1cc(NC(=O)C2C(c3cc(Cl)cc(Cl)c3)C2(Cl)Cl)ccc1Cl` (stereo not drawn) [Compound 1026]: 100%.
On to `O=C(Nc1ncc(F)cn1)c1cc(NC(=O)C2C(c3cc(Cl)cc(Cl)c3)C2(Cl)Cl)ccc1Cl` (stereo not drawn) [Compound 1028], for which the inhibition at 0.1 µM is 100%.
With `O=C(Nc1cccc(F)n1)c1cc(NC(=O)C2C(c3cc(Cl)cc(Cl)c3)C2(Cl)Cl)ccc1Cl` (stereo not drawn) [Compound 1030], the inhibition at 0.1 µM is ≥ 80%.
On to `Cc1cc(F)cnc1NC(=O)c1cc(NC(=O)C2C(c3cc(Cl)cc(Cl)c3)C2(Cl)Cl)ccc1Cl` (stereo not drawn) [Compound 1031], for which the inhibition at 0.1 µM was found to be 100%.
For `O=C(Nc1cncnc1)c1cc(NC(=O)C2C(c3cc(Cl)cc(Cl)c3)C2(Cl)Cl)ccc1Cl` (stereo not drawn) [Compound 1038], the inhibition at 0.01 µM came out at 80%.
As for `N#Cc1cccc(F)c1NC(=O)c1cc(NC(=O)C2C(c3cc(Cl)cc(Cl)c3)C2(Cl)Cl)ccc1Cl` (stereo not drawn) [Compound 1040], the inhibition at 0.1 µM is 100%.
With `Nc1cccc(NC(=O)c2cc(NC(=O)C3C(c4cc(Cl)cc(Cl)c4)C3(Cl)Cl)ccc2Cl)n1` (stereo not drawn) [Compound 1045], the inhibition at 0.1 µM amounted to 100%.
As to `Nc1cccc(NC(=O)c2cc(NC(=O)C3C(c4ccc(F)c(Cl)c4)C3(Cl)Cl)ccc2Cl)n1` (stereo not drawn) [Compound 1046], the inhibition at 0.1 µM is 100%.
Still for that read-out and setting: the same measure for `N#Cc1cc(Cl)cc(C2C(C(=O)Nc3ccc(Cl)c(C(=O)Nc4ncc(F)cc4F)c3)C2(Cl)Cl)c1` (stereo not drawn) [Compound 1048]: 100%; for `O=C(Nc1cncc([N+](=O)[O-])c1)c1cc(NC(=O)C2C(c3cc(Cl)cc(Cl)c3)C2(Cl)Cl)ccc1Cl` (stereo not drawn) [Compound 1051]: 100%.
Same read-out and setting: the result for `O=C(Nc1ccnc(Cl)c1)c1cc(NC(=O)C2C(c3cc(Cl)cc(Cl)c3)C2(Cl)Cl)ccc1Cl` (stereo not drawn) [Compound 1055] reads ≥ 80%; that for `O=C(Nc1ncc(F)c(I)c1F)c1cc(NC(=O)C2C(c3cc(Cl)cc(Cl)c3)C2(Cl)Cl)ccc1Cl` (stereo not drawn) [Compound 1060], 100%; that for `Cc1cc(NC(=O)c2cc(NC(=O)C3C(c4cc(Cl)cc(Cl)c4)C3(Cl)Cl)ccc2Cl)cnc1F` (stereo not drawn) [Compound 1064], 100%.
